Results: ChEMBL document CHEMBL1201862, “PubChem BioAssay data set” (2004)
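Briefly, cells in 96-well plates were exposed to five compound concentrations for 48 h, and endpoints were estimated by linear interpolation. GI50 is the concentration that inhibits growth by half.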 Activity calls are given as the source filed them. Rule as the data show it: active = GI50 up to about 1.1 µM and inactive = higher.

Key:
Assay in all cases: DTP human tumour cell line panel, 48 h
[1] = system: SN12C
[2] = system: CCRF-CEM
[3] = system: SF-295
[4] = system: UACC-257
[5] = system: HOP-62
[6] = system: MOLT-4
[7] = system: Malme-3M
[8] = system: HOP-92
[9] = system: CAKI-1
[10] = system: A498
[11] = system: EKVX
[12] = system: COLO 205
[13] = system: OVCAR-5
[14] = system: XF498
[15] = system: SK-OV-3
[16] = system: 786-0
[17] = system: HCT-116
[18] = system: ACHN
[19] = system: NCI-H226
[20] = system: SNB-78
[21] = system: A549
[22] = system: UO-31
[23] = system: SNB-75
[24] = system: HL-60
[25] = system: HCC 2998
[26] = system: KM12
[27] = system: OVCAR-4
[28] = system: UACC-62
[29] = system: SW-620
[30] = system: SK-MEL-28
[31] = system: KM-20L2
[32] = system: SK-MEL-2
[33] = system: LOX IMVI
[34] = system: SK-MEL-5
[35] = system: LXFL 529
[36] = system: RPMI-8226
[37] = system: SF-268
[38] = system: DLD-1
[39] = system: U-251
[40] = system: M19-MEL
[41] = system: HCT-15
[42] = system: TK-10
[43] = system: OVCAR-8
[44] = system: SNB-19
[45] = system: K562
[46] = system: NCI-H460
[47] = system: NCI-H23
[48] = system: SF-539
[49] = system: SR
[50] = system: RXF 393
[51] = system: IGROV-1
[52] = system: M14
[53] = system: DMS-114
[54] = system: OVCAR-3
[55] = system: HT-29
[56] = system: RXF 631
[57] = system: NCI-H522
[58] = system: DMS-273
[59] = system: HOP-18

Measured: GI50

CCC1(c2ccncc2)CCC(=O)NC1=O (stereo unspecified) [ROGLETIMIDE]
> 100 µM: [41]
inactive: [1] > 100 µM | [2] > 100 µM | [3] > 100 µM | [4] > 100 µM | [5] > 100 µM | [6] > 100 µM | [7] > 100 µM | [8] 52.4 µM | [9] > 100 µM | [10] > 100 µM | [11] > 100 µM | [12] > 100 µM | [13] > 100 µM | [14] > 100 µM | [15] > 100 µM | [16] > 100 µM | [17] > 100 µM | [18] > 100 µM | [19] > 100 µM | [20] > 100 µM | [21] > 100 µM | [22] > 100 µM | [23] > 100 µM | [24] > 100 µM | [25] > 100 µM | [26] > 100 µM | [27] > 100 µM | [28] > 100 µM | [29] > 100 µM | [30] > 100 µM | [31] > 100 µM | [32] > 100 µM | [33] > 100 µM | [34] > 100 µM | [35] > 100 µM | [36] > 100 µM | [37] > 100 µM | [38] > 100 µM | [39] > 100 µM | [40] > 100 µM | [42] > 100 µM | [43] > 100 µM | [44] > 100 µM | [45] > 100 µM | [46] > 100 µM | [47] > 100 µM | [48] > 100 µM | [49] > 100 µM | [50] > 100 µM | [51] > 100 µM | [52] > 100 µM | [53] > 100 µM | [54] > 100 µM | [55] > 100 µM | [56] > 100 µM

O=C1[C@@H](c2ccc(Cl)cc2)[C@H]2CC=C[C@H]2N1O
91.4 µM: [41]
inactive: [1] > 100 µM | [2] 51.2 µM | [3] > 100 µM | [4] > 100 µM | [5] > 100 µM | [6] 66.1 µM | [7] > 100 µM | [57] 71.1 µM | [9] > 100 µM | [11] > 100 µM | [12] > 100 µM | [14] > 100 µM | [15] > 100 µM | [16] > 100 µM | [58] > 100 µM | [19] > 100 µM | [20] > 100 µM | [21] > 100 µM | [22] 89.7 µM | [23] > 100 µM | [24] > 100 µM | [25] 52.8 µM | [26] > 100 µM | [28] > 100 µM | [29] > 100 µM | [30] > 100 µM | [32] > 100 µM | [33] > 100 µM | [34] > 100 µM | [35] > 100 µM | [36] > 100 µM | [37] > 100 µM | [38] > 100 µM | [40] > 100 µM | [42] > 100 µM | [43] > 100 µM | [44] > 100 µM | [45] > 100 µM | [47] > 100 µM | [48] > 100 µM | [50] 14.3 µM | [51] > 100 µM | [52] > 100 µM | [53] 41.5 µM | [54] > 100 µM | [55] > 100 µM | [56] 39.7 µM

CCN(CC)C1CC(n2cc(C)c(=O)[nH]c2=O)OC1CO (stereo unspecified)
inactive: [1] > 100 µM | [2] > 100 µM | [5] > 100 µM | [6] > 100 µM | [7] > 100 µM | [57] > 100 µM | [8] > 100 µM | [9] > 100 µM | [10] > 100 µM | [12] > 100 µM | [14] > 100 µM | [15] > 100 µM | [16] > 100 µM | [17] > 100 µM | [58] > 100 µM | [19] > 100 µM | [20] > 100 µM | [22] > 100 µM | [23] > 100 µM | [24] > 100 µM | [25] > 100 µM | [27] > 100 µM | [28] > 100 µM | [30] > 100 µM | [32] > 100 µM | [35] > 100 µM | [36] > 100 µM | [37] > 100 µM | [38] > 100 µM | [40] > 100 µM | [45] > 100 µM | [46] > 100 µM | [47] > 100 µM | [48] > 100 µM | [49] > 100 µM | [51] > 100 µM | [52] > 100 µM | [53] > 100 µM | [56] > 100 µM

COc1c(C)c(O)c2c(=O)cc(-c3ccccc3)oc2c1C
inactive: [1] > 100 µM | [2] > 100 µM | [3] > 100 µM | [4] > 100 µM | [5] > 100 µM | [6] > 100 µM | [7] > 100 µM | [57] > 100 µM | [8] > 100 µM | [9] > 100 µM | [10] > 100 µM | [11] > 100 µM | [13] > 100 µM | [15] > 100 µM | [16] > 100 µM | [17] > 100 µM | [18] > 100 µM | [19] > 100 µM | [20] > 100 µM | [21] > 100 µM | [22] > 100 µM | [23] > 100 µM | [25] > 100 µM | [26] > 100 µM | [27] > 100 µM | [28] > 100 µM | [29] > 100 µM | [30] > 100 µM | [31] > 100 µM | [32] > 100 µM | [33] > 100 µM | [34] > 100 µM | [35] > 100 µM | [37] > 100 µM | [38] > 100 µM | [39] > 100 µM | [40] > 100 µM | [42] > 100 µM | [43] > 100 µM | [45] > 100 µM | [46] > 100 µM | [47] > 100 µM | [48] > 100 µM | [51] > 100 µM | [52] > 100 µM | [53] > 100 µM | [54] > 100 µM | [59] > 100 µM | [55] > 100 µM | [56] > 100 µM
> 100 µM: [41]

O=C(Nc1ccc(Nc2ccc(NC(=O)c3ccccc3)c3c2C(=O)c2ccccc2C3=O)c2c1C(=O)c1ccccc1C2=O)c1ccccc1
> 100 µM: [41]
inactive: [1] > 100 µM | [2] > 100 µM | [4] > 100 µM | [5] > 100 µM | [6] > 100 µM | [7] > 100 µM | [57] > 100 µM | [9] > 100 µM | [10] > 100 µM | [11] > 100 µM | [12] > 100 µM | [15] > 100 µM | [16] 52.5 µM | [17] > 100 µM | [18] > 100 µM | [58] > 100 µM | [19] > 100 µM | [20] > 100 µM | [21] > 100 µM | [22] > 100 µM | [23] 35.6 µM | [24] > 100 µM | [25] > 100 µM | [26] > 100 µM | [27] > 100 µM | [28] > 100 µM | [29] > 100 µM | [30] > 100 µM | [31] > 100 µM | [32] > 100 µM | [34] > 100 µM | [35] > 100 µM | [36] > 100 µM | [37] > 100 µM | [38] > 100 µM | [39] > 100 µM | [40] > 100 µM | [42] > 100 µM | [43] > 100 µM | [44] > 100 µM | [45] > 100 µM | [46] > 100 µM | [48] > 100 µM | [49] > 100 µM | [50] > 100 µM | [51] > 100 µM | [52] > 100 µM | [53] > 100 µM | [54] > 100 µM | [59] > 100 µM | [56] > 100 µM
